Where two headings read alike, the source gives them in different places. Marks after values point to notes of the source that are not given here.

Data set [1] relates to renal cell carcinoma cells (RCC45 and RCC54). As to the kind of experiment: PPS single agent cytotoxicity, BrdU incorporation, renal cell carcinoma cells. The format is cell-based.
The conditions of data set [2]: fifteenth day of oral treatment, about 400 mg per meter squared per day; cited from earlier work.
The test system of the next data set is anticoagulation. Particulars: cited from earlier work.
A further data set addresses telomerase (Homo sapiens, UniProt O14746). Nature of the data set: Telomerase activity after PPS exposure, modified quantitative TRAP assay. The format is cell-based. The method, then:
Inhibition of telomerase activity in cell lysates and intact cells. The modified Telomeric Repeat Amplification Protocol (TRAP) assay (Gan, et al., Pharm. Res., 18:488-493, 2001) was used to detect telomerase activity in cell lysate. The telomerase activity in intact cells was measured using intracellular TRAP, as follows. Cells (1×10^5) were washed twice with PBS and centrifuged. The cell pellet was resuspended in 100 μl of serum-free RPMI 1640 containing 5 u/ml of Streptolysin O, 2 μM of TS primer, and 50 μM of dNTP, and incubated at room temperature for 5 min. The enzyme streptolysin O was used to increase the cell membrane permeability to the TS primer. Upon entering a cell, the TS primer was elongated by the intracellular telomerase in situ. The elongated TS primer was then isolated from the cells and used as the template for PCR amplification. Then 200 μl of RPMI 1640 medium containing 10% FBS was added to the cells to stop the permeating process. The mixture was incubated at 30° C. for 30 min to allow the extension of intracellular TS primer by telomerase. The cells were then lyzed and the cell lysates, which contained the already extended TS primer, was directly analyzed by TRAP.
Treatment Protocol. Treatment with PPS was initiated after cells were allowed to attach to the growth surface in culture flasks. On the day of experiments, the culture medium was removed and replaced with inhibitor-containing medium. Drug concentrations of 0, 0.1, 1, 10, 100, 1000 μg/ml of PPS were employed. Telomerase activity was measured by the modified quantitative TRAP assay.

The subject of the next data set is RCC45. Nature of the data set: 5-Fluorouracil inhibition of BrdU incorporation (ELISA), RCC45. It is filed as cell-based. The method, then: (§1) A study was performed using two renal cell carcinoma cells (RCC45 and RCC54). 5-Fluorouracil was used as the chemotherapeutic agent. Cells were treated with 5-fluorouracil for 96 hours, with and without PPS. The drug effect was measured as inhibition of the incorporation of a DNA precursor (bromodeoxyuridine or BrdU) using ELISA.
For orientation: Uptake of a labelled nucleoside into DNA is a usual measure of proliferation.

The test system of another data set is RCC54. As to the kind of experiment: 5-Fluorouracil inhibition of BrdU incorporation (ELISA), RCC54. The format is cell-based. The method, then:
as §1

For data set [3], the system named is human pharynx FaDu xenografts.
Experimental: Xenografts were formed by subcutaneous injection of 106 viable tumor cells in 0.1 ml physiologic saline in the right and left flank areas, and were allowed to grow for about 14 days to reach a size of >15 mm^3 before drug treatment was started. […] The saline control group received injections of 200 μl/day of physiological saline for five consecutive days. The paclitaxel group received injections of 10 mg/kg/day paclitaxel dissolved in Cremophor and ethanol (i.e., Taxol) in a volume of 200 μl for five consecutive days. […] Animal weights and tumor sizes were measured on days 1, 3, 6, 8, and 10 after initiation of the paclitaxel treatment.
The antitumor effect of the drug treatments was measured in three ways. The first was the reduction in tumor size. Tumor sizes were determined by first preparing a mold of the extruding tumor using Jeltrate, a rapidly setting molding material, and then preparing and weighing the countermold. Second, the apoptotic effect was measured. The animals were euthanized on day 10, and the tumors were harvested and fixed in formalin. Histologic sections of 5-micron thickness were prepared and stained with hematoxylin and eosin. The tumor sections were evaluated morphologically for tumor cell density, and density of apoptotic cells. Because apoptotic cells disappear over time, the density of non-apoptotic cells is a secondary indicator of apoptosis. Cell densities were determined by counting the number of cells in four randomly selected microscopic fields at 400× magnification, using image analysis procedures (Song, et al., Proc. Natl. Acad. Sci. USA, 97:8658-8663, 2000). Third, the ability of drug treatment to prolong the survival time was measured. For this study, the animals were monitored for 100 days, or until moribundity, defined by a tumor length exceeding 1.0 cm, was reached.
The test system of the next data set is FaDu cells. Nature of the data set: Paclitaxel cytotoxicity (SRB method) in hTR antisense-transfected FaDu cells. The format is cell-based. Particulars: Homo sapiens, paclitaxel 96 hours. The method, then:
Effect of hTR antisense on the cytotoxic effect of […]. Two clones of cells that were stably transfected with the hTR antisense were studied. The cytotoxic effect of paclitaxel was quantified using the SRB method, which measures the total cellular proteins. The cells transfected with hTR antisense were treated with IPTG for 44 (clone#1) to 57 (clone #2) days, and then with paclitaxel for 96 hours.
In general terms: Sulforhodamine B stains cellular protein and so reports cell mass.

For data set [4], the system named is stage IIIB/IV nonsmall cell lung cancer. Particulars: 290 patients; cited from earlier work.

Sequence of telomerase (O14746 whole entry): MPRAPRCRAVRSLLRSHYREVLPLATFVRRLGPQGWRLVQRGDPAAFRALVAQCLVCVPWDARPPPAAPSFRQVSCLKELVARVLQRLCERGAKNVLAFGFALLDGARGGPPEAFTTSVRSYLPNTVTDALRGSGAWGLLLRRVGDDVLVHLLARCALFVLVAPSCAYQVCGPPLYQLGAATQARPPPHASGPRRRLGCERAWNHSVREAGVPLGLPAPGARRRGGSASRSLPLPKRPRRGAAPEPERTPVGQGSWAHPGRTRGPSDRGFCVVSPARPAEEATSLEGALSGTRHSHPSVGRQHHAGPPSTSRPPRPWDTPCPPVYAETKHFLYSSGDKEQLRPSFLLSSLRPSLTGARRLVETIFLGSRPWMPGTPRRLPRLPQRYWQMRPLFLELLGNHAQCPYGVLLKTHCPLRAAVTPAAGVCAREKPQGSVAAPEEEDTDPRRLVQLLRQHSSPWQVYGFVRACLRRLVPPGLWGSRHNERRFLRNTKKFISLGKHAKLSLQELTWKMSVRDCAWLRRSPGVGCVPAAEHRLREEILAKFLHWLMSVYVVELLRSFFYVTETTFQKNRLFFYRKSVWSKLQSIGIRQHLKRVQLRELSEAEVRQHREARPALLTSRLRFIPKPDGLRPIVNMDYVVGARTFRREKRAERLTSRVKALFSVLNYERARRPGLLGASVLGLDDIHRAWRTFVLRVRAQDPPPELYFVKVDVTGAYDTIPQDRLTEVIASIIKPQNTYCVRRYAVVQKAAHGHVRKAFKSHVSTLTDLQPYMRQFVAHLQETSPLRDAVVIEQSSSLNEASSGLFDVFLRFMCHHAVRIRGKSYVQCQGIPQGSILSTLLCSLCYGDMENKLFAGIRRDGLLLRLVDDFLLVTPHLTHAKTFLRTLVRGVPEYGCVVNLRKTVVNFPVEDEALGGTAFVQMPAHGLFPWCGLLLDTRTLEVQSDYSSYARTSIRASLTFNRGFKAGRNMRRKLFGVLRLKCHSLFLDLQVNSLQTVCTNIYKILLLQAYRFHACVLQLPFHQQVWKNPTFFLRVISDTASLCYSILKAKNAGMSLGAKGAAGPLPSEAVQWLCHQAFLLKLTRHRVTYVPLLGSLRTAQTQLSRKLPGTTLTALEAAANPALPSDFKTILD
Sequence of telomerase (O60832 whole entry partner): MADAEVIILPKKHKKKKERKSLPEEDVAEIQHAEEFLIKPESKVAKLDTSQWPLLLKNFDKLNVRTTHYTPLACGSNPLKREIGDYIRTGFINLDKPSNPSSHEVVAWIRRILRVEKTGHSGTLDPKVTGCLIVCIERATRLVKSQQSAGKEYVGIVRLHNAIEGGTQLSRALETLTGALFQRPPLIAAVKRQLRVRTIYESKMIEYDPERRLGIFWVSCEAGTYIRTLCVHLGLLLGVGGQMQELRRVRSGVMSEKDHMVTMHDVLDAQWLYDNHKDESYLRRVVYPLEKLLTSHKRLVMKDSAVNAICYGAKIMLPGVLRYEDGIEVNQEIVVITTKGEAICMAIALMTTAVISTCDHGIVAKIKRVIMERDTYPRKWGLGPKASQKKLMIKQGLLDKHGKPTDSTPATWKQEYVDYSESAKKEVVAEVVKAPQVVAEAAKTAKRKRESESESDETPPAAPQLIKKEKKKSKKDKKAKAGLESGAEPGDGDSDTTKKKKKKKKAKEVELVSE
Sequence of telomerase (Q9NPE3 whole entry partner): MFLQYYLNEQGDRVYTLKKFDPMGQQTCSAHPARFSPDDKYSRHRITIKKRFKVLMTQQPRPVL
Sequence of telomerase (Q9NX24 whole entry partner): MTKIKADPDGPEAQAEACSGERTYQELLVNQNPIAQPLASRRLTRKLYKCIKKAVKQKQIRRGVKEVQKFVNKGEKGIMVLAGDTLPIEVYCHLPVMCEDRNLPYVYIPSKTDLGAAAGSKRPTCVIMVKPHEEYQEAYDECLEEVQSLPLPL
Sequence of telomerase (Q9NY12 whole entry partner): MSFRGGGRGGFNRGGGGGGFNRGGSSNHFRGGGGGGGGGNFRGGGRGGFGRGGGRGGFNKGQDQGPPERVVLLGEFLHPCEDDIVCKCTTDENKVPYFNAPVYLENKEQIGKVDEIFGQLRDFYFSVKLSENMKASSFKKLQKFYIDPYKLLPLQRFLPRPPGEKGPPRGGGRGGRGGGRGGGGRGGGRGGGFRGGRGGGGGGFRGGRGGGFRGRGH

pentosan polysulfate [PPS]: the “IC50 of PPS as a single agent” value in [1] (96 hours, BrdU incorporation) is reported as ~1,400 μg/ml. The “cytotoxicity of PPS” value in data set [1] (at 10 and 100 μg/ml) is given as “no cytotoxicity”. Also, the plasma concentrations in data set [2] was 200 to 460 ng/mL. In addition, the “concentrations at which anticoagulation is found” value with anticoagulation was “above 1 μg/ml”. Moreover, the “concentration resulting in 50% inhibition of telomerase activity” value on telomerase (FaDu cells) is 0.56 µg/mL; on telomerase (SKOV-3 cells) it was 0.60 µg/mL. Moreover, the “concentrations resulting in 80% inhibition of telomerase activity” value on telomerase (both cells (FaDu and SKOV-3)) was “less than 10 μg/ml”. The “concentrations resulting in 90% inhibition of telomerase activity” value on telomerase (both cells (FaDu and SKOV-3)) is reported as “less than 100 μg/ml”. On telomerase (summary of Example 3), the “concentrations required for 50% inhibition of telomerase activity” value is 0.5 to 0.6 µg/mL.
One may read the IC50 as the concentration that gives 50% inhibition. For `O=c1[nH]cc(F)c(=O)[nH]1` [5-fluorouracil], the IC50 worked out at 7580 nM in the data set on RCC45 (RCC45, No PPS); 5150 nM in the data set on RCC45 (RCC45, With 10 μg/ml PPS); 7270 nM in the data set with RCC54 (RCC54, No PPS); 4650 nM in the data set on RCC54 (RCC54, With 10 μg/ml PPS); 2340 nM with RCC54 (RCC54, With 10 μg/ml PPS plus 30 μM suramin); 3580 nM in the data set with RCC54 (RCC54, With 100 μg/ml PPS).
For `CC(=O)O[C@H]1C(=O)[C@@]2(C)[C@H]([C@H](OC(=O)c3ccccc3)[C@]3(O)C[C@H](OC(=O)[C@H](O)[C@@H](NC(=O)c4ccccc4)c4ccccc4)C(C)=C1C3(C)C)[C@]1(OC(C)=O)CO[C@@H]1C[C@@H]2O` [paclitaxel], the “median time to reach moribundity” value in data set [3] (Kaplan Meier analysis, monitored for 100 days) was 42 days. The “% Apoptotic cells per tumor” value in [3] (day 10 tumors, Mean ± SD) was found to be 30 ± 17%^a. The “Number of apoptotic cells per 400x field” value in [3] (day 10 tumors, Mean ± SD) is reported as 66 ± 34^a. In addition, the “Number of nonapoptotic cells per 400x field” value in data set [3] (day 10 tumors, Mean ± SD) is given as 168 ± 53^a. Also, the “End-of-experiment body weight, % of pretreatment value” in [3] (mouse, in vivo) was 97 ± 6^a % of pretreatment value. In addition, the “body weight loss compared to the pretreatment weight” value in data set [3] (mouse, in vivo) was less than 3%. In [3] (of 12 animals), the tumor-free survivors entry is “did not show tumor-free survivors”. For the same molecule, the toxicity-related death entry in data set [3] (single agents) is on record as “no toxicity-related death”. Moreover, the IC50 in the data set on FaDu cells (96 h, +IPTG cells, read-out: IC50 of paclitaxel, clone #1) is 2.42 nM; in the data set on FaDu cells (96 h, +IPTG cells, read-out: IC50 of paclitaxel, clone #2), 2.53 nM; with FaDu cells (96 h, +antisense cells (no IPTG), read-out: IC50 of paclitaxel, clone #1), 2.46 nM; in the data set with FaDu cells (96 h, +antisense cells (no IPTG), read-out: IC50 of paclitaxel, clone #2), 2.87 nM; with FaDu cells (96 h, +sense +IPTG cells, read-out: IC50 of paclitaxel, clone #1) it was 2.56 nM; in the data set on FaDu cells (96 h, +sense +IPTG cells, read-out: IC50 of paclitaxel, clone #2) it was 2.21 nM. Besides, the half-inhibitory concentration (IC50) in the data set on FaDu cells (96 h, Control cells, read-out: IC50 of paclitaxel, clone #1) is 2.04 nM; with FaDu cells (96 h, Control cells, read-out: IC50 of paclitaxel, clone #2), 2.05 nM; in the data set on FaDu cells (+antisense +IPTG cells (IPTG 44 days), read-out: IC50 of paclitaxel, clone #1), 1.3 nM; in the data set with FaDu cells (+antisense +IPTG cells (IPTG 57 days), read-out: IC50 of paclitaxel, clone #2), 1.33 nM.
Turning to paclitaxel/carboplatin, in [4], the MST is given as 8.1 months, the TTP is 3.1 months, the complete response was less than 1% and the overall response rate entry is “about 17%”.

These data come from US20050282893A1 (priority 2004, published 2005).
